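Test compounds were applied to cells in 96-well plates for 48 hours at 5 doses. Abbreviation: GI50, concentration required for 50% inhibition of growth.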 Active and inactive are the calls of the source. Cut-off read from the data, not from the text of the source: active = GI50 up to about 1.1 µM and inactive = higher.
Key:
Assay in all cases: inhibition of tumour cell growth, NCI panel, 48 h
COLO 205 = test system: COLO 205
HCT-15 = test system: HCT-15
HL-60 = test system: HL-60
HT-29 = test system: HT-29
Hs-578T = test system: Hs-578T
K562 = test system: K562
M14 = test system: M14
MDA-N = test system: MDA-N
MOLT-4 = test system: MOLT-4
NCI-H226 = test system: NCI-H226
NCI-H23 = test system: NCI-H23
OVCAR-5 = test system: OVCAR-5
OVCAR-8 = test system: OVCAR-8
PC-3 = test system: PC-3
SK-MEL-28 = test system: SK-MEL-28
SK-MEL-5 = test system: SK-MEL-5
SK-OV-3 = test system: SK-OV-3
TK-10 = test system: TK-10
UACC-257 = test system: UACC-257
UACC-62 = test system: UACC-62

SMILES | GI50 (COLO 205) | GI50 (HCT-15) [µM] | GI50 (HL-60) | GI50 (HT-29) | GI50 (Hs-578T) | GI50 (K562) | GI50 (M14) | GI50 (MDA-N) | GI50 (MOLT-4) | GI50 (NCI-H226) | GI50 (NCI-H23) | GI50 (OVCAR-5) | GI50 (OVCAR-8) | GI50 (PC-3) | GI50 (SK-MEL-28) | GI50 (SK-MEL-5) | GI50 (SK-OV-3) | GI50 (TK-10) | GI50 (UACC-257) | GI50 (UACC-62)
Cc1nc2ccc(S(=O)(=O)O)cc2c(=O)n1-c1ccc(C(=O)NN2C(=O)C(Cl)C2c2cccs2)cc1 (stereo not given) | > 100 µM (inactive) | > 100 | 17.8 µM (inactive) | > 100 µM (inactive) | > 100 µM (inactive) | > 100 µM (inactive) | 18.2 µM (inactive) | 26.1 µM (inactive) | > 100 µM (inactive) | > 100 µM (inactive) | > 100 µM (inactive) | > 100 µM (inactive) | > 100 µM (inactive) | > 100 µM (inactive) | > 100 µM (inactive) | > 100 µM (inactive) | > 100 µM (inactive) | > 100 µM (inactive) | > 100 µM (inactive) | > 100 µM (inactive)
c1ccc(CN2CCN3CCN(CC2)CCN(Cc2ccccc2)CC3)cc1 | 1.93 µM (inactive) | 32.4 | 2.55 µM (inactive) | 3.37 µM (inactive) | 14.6 µM (inactive) | 4 µM (inactive) | 5.51 µM (inactive) | 3.3 µM (inactive) | 8.75 µM (inactive) | 4.94 µM (inactive) | 5.05 µM (inactive) | 9.48 µM (inactive) | 9.73 µM (inactive) | 4.97 µM (inactive) | 4.67 µM (inactive) | 1.98 µM (inactive) | 16.4 µM (inactive) | 11.4 µM (inactive) | 3.04 µM (inactive) | 4.24 µM (inactive)
O=C1C(c2c(O)[nH]c3ccc(Cl)cc23)=Nc2ccccc21 | 20 µM (inactive) | 7.73 | 28.8 µM (inactive) | 5.09 µM (inactive) | 3.43 µM (inactive) | 7.71 µM (inactive) | 6.85 µM (inactive) | 6.38 µM (inactive) | > 47 µM (inactive) | 6.05 µM (inactive) | 9.12 µM (inactive) | 8.11 µM (inactive) | 4.09 µM (inactive) | 3.28 µM (inactive) | > 100 µM (inactive) | 3.18 µM (inactive) | 3.08 µM (inactive) | 4.23 µM (inactive) | > 53.5 µM (inactive) | 11.8 µM (inactive)
COC(=O)c1ccccc1C1CN=NC12Cc1ccccc1C2=O (stereo not given) | > 100 µM (inactive) | > 100 | 47.4 µM (inactive) | > 100 µM (inactive) | 50.7 µM (inactive) | 68.5 µM (inactive) | 68.1 µM (inactive) | > 100 µM (inactive) | 41.7 µM (inactive) | > 100 µM (inactive) | > 100 µM (inactive) | > 100 µM (inactive) | 59.6 µM (inactive) | 34 µM (inactive) | 77.6 µM (inactive) | 42.4 µM (inactive) | > 100 µM (inactive) | > 100 µM (inactive) | > 100 µM (inactive) | 42.1 µM (inactive)
N#Cc1c(N2CCCC2)ncn(Cc2ccccc2)c1=S | > 100 µM (inactive) | > 100 | > 100 µM (inactive) | > 100 µM (inactive) | > 54.8 µM (inactive) | > 100 µM (inactive) | > 100 µM (inactive) | > 100 µM (inactive) | > 100 µM (inactive) | > 96.2 µM (inactive) | > 100 µM (inactive) | > 100 µM (inactive) | 57.1 µM (inactive) | 71.3 µM (inactive) | > 100 µM (inactive) | > 100 µM (inactive) | > 100 µM (inactive) | > 100 µM (inactive) | > 100 µM (inactive) | 68.7 µM (inactive)
CC1(c2nc3cc(Cl)c(Cl)cc3[nH]2)CCC(C(=O)O)C(C)(C)O1 (stereo not given) | > 100 µM (inactive) | > 100 | > 100 µM (inactive) | > 100 µM (inactive) | > 100 µM (inactive) | > 100 µM (inactive) | > 100 µM (inactive) | > 100 µM (inactive) | > 100 µM (inactive) | > 100 µM (inactive) | > 100 µM (inactive) | > 100 µM (inactive) | > 100 µM (inactive) | > 100 µM (inactive) | > 100 µM (inactive) | > 100 µM (inactive) | > 100 µM (inactive) | > 100 µM (inactive) | > 100 µM (inactive) | > 100 µM (inactive)
O=[N+]([O-])c1ccc(-c2csc3nc(-c4ccccc4)nn23)cc1 | > 100 µM (inactive) | > 100 | > 100 µM (inactive) | > 100 µM (inactive) | > 100 µM (inactive) | > 100 µM (inactive) | > 100 µM (inactive) | > 100 µM (inactive) | > 100 µM (inactive) | > 100 µM (inactive) | > 100 µM (inactive) | > 100 µM (inactive) | 47.5 µM (inactive) | > 100 µM (inactive) | > 100 µM (inactive) | > 100 µM (inactive) | 61.9 µM (inactive) | > 100 µM (inactive) | > 100 µM (inactive) | > 100 µM (inactive)
CC(=O)OC1CC[C@@]2(C)C(CC[C@]3(C)C2CC=C2[C@@H]4CC(C)(C)CCC4(C)CCC23C)[C@@]1(C)C(=O)O (stereo not given in full) | 19.1 µM (inactive) | 7.93 | 31.3 µM (inactive) | 15.9 µM (inactive) | 20.5 µM (inactive) | 19.2 µM (inactive) | 19.9 µM (inactive) | 21.9 µM (inactive) | 17.6 µM (inactive) | 22 µM (inactive) | 11.4 µM (inactive) | 22.7 µM (inactive) | 14 µM (inactive) | 6.61 µM (inactive) | 21.2 µM (inactive) | 16.9 µM (inactive) | 17.7 µM (inactive) | 22.3 µM (inactive) | 19.9 µM (inactive) | 15.4 µM (inactive)
CN(C)CCOC1(CC2CCCCC2)CCC(C(C)(C)C)CC1 (stereo not given) | 2.87 µM (inactive) | 3.75 | 2.54 µM (inactive) | 2.43 µM (inactive) | 6.78 µM (inactive) | 2.04 µM (inactive) | 2.14 µM (inactive) | 4.25 µM (inactive) | 2.49 µM (inactive) | 6.84 µM (inactive) | 8.43 µM (inactive) | 5.53 µM (inactive) | 6.82 µM (inactive) | 4.1 µM (inactive) | 4.68 µM (inactive) | 2.3 µM (inactive) | 11.6 µM (inactive) | 12.8 µM (inactive) | 4.61 µM (inactive) | 7.8 µM (inactive)
Cc1nnc(N)nc1/C=C\c1ccc(Cl)cc1Cl | 20.9 µM (inactive) | 23.3 | 27 µM (inactive) | 20.6 µM (inactive) | 29.2 µM (inactive) | 77.8 µM (inactive) | 29.6 µM (inactive) | 55.5 µM (inactive) | 41.4 µM (inactive) | 17.3 µM (inactive) | 33.7 µM (inactive) | 42.5 µM (inactive) | 27 µM (inactive) | 16.9 µM (inactive) | 55.5 µM (inactive) | 30.9 µM (inactive) | 45.5 µM (inactive) | > 100 µM (inactive) | 54.6 µM (inactive) | 30.8 µM (inactive)
CNc1ccc(C(=O)CC(O)CCC(C)C2OC(=O)CC(O)CC(=O)CC(O)CC(O)CC(O)CC(O)CC3(O)CC(O)C(C(=O)N4CCOCC4)C(CC(OC4OC(C)C(O)C(N)C4O)\C=C/C=C\C=C/C=C/C=C/C=C\C=C/C2C)O3)cc1 (stereo not given) | 0.416 µM (active) | 0.308 | 0.373 µM (active) | 0.232 µM (active) | 0.294 µM (active) | 0.378 µM (active) | 0.328 µM (active) | 0.304 µM (active) | 0.399 µM (active) | 0.277 µM (active) | 0.329 µM (active) | 0.607 µM (active) | 0.376 µM (active) | 0.355 µM (active) | 0.186 µM (active) | 0.181 µM (active) | 0.418 µM (active) | 0.247 µM (active) | 0.185 µM (active) | 0.258 µM (active)
Cc1ccc2c(c1C)-c1c(ccc(C)c1C)C(=O)C2=O | 2.02 µM (inactive) | 0.292 | 0.219 µM (active) | 2.36 µM (inactive) | 0.342 µM (active) | 0.266 µM (active) | 0.679 µM (active) | 0.173 µM (active) | 0.2 µM (active) | 1.66 µM (inactive) | 0.53 µM (active) | 1.55 µM (inactive) | 0.253 µM (active) | 0.265 µM (active) | 0.92 µM (active) | 0.367 µM (active) | 2.15 µM (inactive) | 1.18 µM (inactive) | 1.37 µM (inactive) | 0.356 µM (active)
COc1ccc(CSCc2cc(OC)c(OC)c(OC)c2)cc1 | > 100 µM (inactive) | > 45.3 | 5.92 µM (inactive) | > 100 µM (inactive) | > 66.4 µM (inactive) | 33.8 µM (inactive) | > 54.5 µM (inactive) | 7.26 µM (inactive) | > 48.5 µM (inactive) | > 100 µM (inactive) | > 76 µM (inactive) | > 100 µM (inactive) | > 31.6 µM (inactive) | > 31.6 µM (inactive) | > 100 µM (inactive) | 21.2 µM (inactive) | > 100 µM (inactive) | > 100 µM (inactive) | > 31.6 µM (inactive) | > 43 µM (inactive)
C[C@]12[C@@H]3CC[C@H]1[C@@H](OC(=O)Nc1cc([N+](=O)[O-])cc([N+](=O)[O-])c1)C(=O)N2CC3 | > 100 µM (inactive) | > 100 | 62.8 µM (inactive) | > 100 µM (inactive) | > 100 µM (inactive) | > 100 µM (inactive) | > 100 µM (inactive) | > 100 µM (inactive) | > 100 µM (inactive) | > 100 µM (inactive) | > 100 µM (inactive) | > 100 µM (inactive) | > 100 µM (inactive) | > 100 µM (inactive) | > 100 µM (inactive) | > 100 µM (inactive) | > 100 µM (inactive) | > 100 µM (inactive) | > 100 µM (inactive) | > 100 µM (inactive)

From ChEMBL document CHEMBL1201862, “PubChem BioAssay data set” (2004)
